Values of other authors in patent US20070218128A1, “Manufacturing of Quick Release Pharmaceutical Compositions of Water Insoluble Drugs and Pharmaceutical Compositions Obtained By the Process of the Invention” (priority 2004, published 2007).
Read-outs that look alike come from different tables or passages of the source.

Assays:
[1] = approximate values; for pKa1 / pKa2 / pKa3: Table 1 amino acids; for pKa: Table 1 alkaline substances, refer to the pKa of the acid
[2] = for solubility in water and in 0.1 N HCl: water and 0.1 N HCl

SMILES: N=C(N)NCCC[C@H](N)C(=O)O [Arginine]
- pKa1 [1]: pKa1: 2.2
- pKa2 [1]: pKa2: 9.1
- pKa3 [1]: pKa3: 13.2
- pH (100 g/L H2O): pH ≈ 11.4

SMILES: COc1ccc2c3c1O[C@H]1[C@@H](O)C=C[C@H]4[C@@H](C2)N(C)CC[C@@]341 [Codeine, reference compound]
- pH in saturated solution (saturated solution): solution ≈ 9.8)

SMILES: O=C([O-])[O-].[Na+].[Na+] [Di-sodium carbonate]
- pKa [1]: 10.3

SMILES: N[C@@H](Cc1c[nH]cn1)C(=O)O [Histidine]
- pKa1 [1]: pKa1: 1.8
- pKa2 [1]: pKa2: 6.0
- pKa3 [1]: pKa3: 9.0
- pH (10 g/L H2O): pH ≈ 7.7

SMILES: NN [Hydrazine]
- pKa [1]: 8

SMILES: NCCCC[C@H](N)C(=O)O [Lysine]
- pKa1 [1]: pKa1: 2.2
- pKa2 [1]: pKa2: 8.9

SMILES: O=C([O-])/C=C/C(=O)[O-].[Na+].[Na+] [Sodium fumerate]
- pKa [1]: 4.4

SMILES: O=C([O-])/C=C\C(=O)[O-].[Na+].[Na+] [Sodium maleate]
- pKa [1]: 6.2

SMILES: CC(=O)Oc1ccccc1C(=O)O [acetylsalicylic acid]
- solubility in water and in 0.1 N HCl ([2]; room temperature): practically insoluble

SMILES: COc1ccc2c(c1)c(CC(=O)O)c(C)n2C(=O)c1ccc(Cl)cc1 [indometacin]
- solubility in water and in 0.1 N HCl ([2]; room temperature): practically insoluble

SMILES: CN1C(C(=O)Nc2ccccn2)=C(O)c2sc(Cl)cc2S1(=O)=O [lornoxicam]
- solubility in 0.1 N HCl ([2]; 0.1 N HCl): less than 0.1 % w/v
- solubility at a pH of 0.1 N HCl ([2]; 0.1 N HCl, room temperature): less than 1 mg/100 ml
